In ChEMBL document CHEMBL1130625, “Synthesis and antibacterial activity of novel 7-(3-substituted-3 or 4-trifluoromethyl-1-pyrrolidinyl)-8-methoxyfluoroquinolones” (1998):
Blank lines part the entries; values can stand above or below the compound they belong to.

What was measured:
Escherichia coli [1] = test: Compound was tested for antibacterial activity against gram negative Escherichia coli CSH2/RK1; assay type: functional
Citrobacter freundii [2] = test: Compound was tested for antibacterial activity against gram negative Citrobacter freundii KP-29; assay type: functional
Burkholderia cepacia = test: Compound was tested for antibacterial activity against gram negative Burkholderia cepacia 23; assay type: functional
Proteus vulgaris [3] = test: Compound was tested for antibacterial activity against gram negative Proteus vulgaris KS-134; assay type: functional
Citrobacter freundii [4] = test: Compound was tested for antibacterial activity against gram negative Citrobacter freundii No.7; assay type: functional
Escherichia coli [5] = test: Compound was tested for antibacterial activity against gram negative Escherichia coli ML4707; assay type: functional
Enterococcus faecalis = test: Compound was tested for antibacterial activity against gram positive Enterococcus faecalis 1373; assay type: functional
Proteus vulgaris [6] = test: Compound was tested for antibacterial activity against gram negative Proteus vulgaris No.33; assay type: functional
Klebsiella pneumoniae [7] = test: Compound was tested for antibacterial activity against gram negative Klebsiella pneumoniae KC-1; assay type: functional
Streptococcus pyogenes = test: Compound was tested for antibacterial activity against gram positive Streptococcus pyogenes cook
Staphylococcus aureus [8] = test: Compound was tested for antibacterial activity against gram positive Staphylococcus aureus JS-1; assay type: functional
[9] = tested on: Acinetobacter calcoaceticus; test: Compound was tested for antibacterial activity against gram negative Acinetobacter calcoaceticus No.4; assay type: functional
Staphylococcus aureus [10] = test: Compound was tested for antibacterial activity against gram positive Staphylococcus aureus FDA 209P JC-1; assay type: functional
Escherichia coli [11] = test: Compound was tested for antibacterial activity against gram negative Escherichia coli CSH2/RE45; assay type: functional
Staphylococcus aureus [12] = test: Compound was tested for antibacterial activity against gram positive Staphylococcus aureus KP-90-3; assay type: functional
Serratia marcescens = test: Compound was tested for antibacterial activity against gram negative Serratia marcescens No.16-2; assay type: functional
Pseudomonas aeruginosa [13] = test: Compound was tested for antibacterial activity against gram negative Pseudomonas aeruginosa K-13; assay type: functional
Klebsiella pneumoniae [14] = test: Compound was tested for antibacterial activity against gram negative Klebsiella pneumoniae No.42; assay type: functional
Klebsiella oxytoca = test: Compound was tested for antibacterial activity against gram negative Klebsiella oxytoca GN 10650; assay type: functional
Pseudomonas aeruginosa [15] = test: Compound was tested for antibacterial activity against gram negative Pseudomonas aeruginosa PAO1; assay type: functional
Enterobacter cloacae = test: Compound was tested for antibacterial activity against gram negative Enterobacter cloacae Nek39; assay type: functional
Proteus mirabilis = test: Compound was tested for antibacterial activity against gram negative Proteus mirabilis JY-10; assay type: functional
Pseudomonas aeruginosa [16] = test: Compound was tested for antibacterial activity against gram negative Pseudomonas aeruginosa KP-254; assay type: functional
Pseudomonas aeruginosa [17] = test: Compound was tested for antibacterial activity against gram negative Pseudomonas aeruginosa AK109; assay type: functional
Escherichia coli [18] = test: Compound was tested for antibacterial activity against gram negative Escherichia coli NIHJ JC-2; assay type: functional
Staphylococcus aureus [19] = test: Compound was tested for antibacterial activity against gram positive Staphylococcus aureus smith; assay type: functional
[20] = Escherichia coli, read-out: MIC
[21] = Citrobacter freundii, read-out: MIC
[22] = Burkholderia cepacia, read-out: MIC
[23] = Proteus vulgaris, read-out: MIC
[24] = Enterococcus faecalis, read-out: MIC
[25] = Klebsiella pneumoniae, read-out: MIC
[26] = Streptococcus pyogenes, read-out: MIC
[27] = Staphylococcus aureus, read-out: MIC
[28] = Acinetobacter calcoaceticus, read-out: MIC
[29] = Serratia marcescens, read-out: MIC
[30] = Pseudomonas aeruginosa, read-out: MIC
[31] = Klebsiella oxytoca, read-out: MIC
[32] = Enterobacter cloacae, read-out: MIC
[33] = Proteus mirabilis, read-out: MIC

Structure (SMILES): COc1c(N2C[C@@H](CN)[C@H](C(F)(F)F)C2)c(F)cc2c(=O)c(C(=O)O)cn(C3CC3)c12.Cl
MIC (Escherichia coli [1]): 0.39 µg/mL
MIC (Citrobacter freundii [2]): 12.5 µg/mL
MIC (Burkholderia cepacia): 1.56 µg/mL
MIC (Proteus vulgaris [3]): 50 µg/mL
MIC (Citrobacter freundii [4]): 0.78 µg/mL
MIC (Escherichia coli [5]): 0.025 µg/mL
MIC (Enterococcus faecalis): 0.025 µg/mL
MIC (Proteus vulgaris [6]): 0.05 µg/mL
MIC (Klebsiella pneumoniae [7]): 0.05 µg/mL
MIC (Streptococcus pyogenes): 0.013 µg/mL
MIC (Staphylococcus aureus [8]): <0.006 µg/mL
MIC [9]: 0.1 µg/mL
MIC (Staphylococcus aureus [10]): 0.025 µg/mL
MIC (Escherichia coli [11]): 0.39 µg/mL
MIC (Staphylococcus aureus [12]): 0.39 µg/mL
MIC (Serratia marcescens): 0.39 µg/mL
MIC (Pseudomonas aeruginosa [13]): 12.5 µg/mL
MIC (Klebsiella pneumoniae [14]): 0.1 µg/mL
MIC (Klebsiella oxytoca): 0.1 µg/mL
MIC (Pseudomonas aeruginosa [15]): 1.56 µg/mL
MIC (Enterobacter cloacae): 0.39 µg/mL
MIC (Proteus mirabilis): 0.05 µg/mL
MIC (Pseudomonas aeruginosa [16]): 100 µg/mL
MIC (Pseudomonas aeruginosa [17]): 1.56 µg/mL
MIC (Escherichia coli [18]): 0.025 µg/mL

Structure (SMILES): COc1c(N2C[C@@H](CN)[C@H](C)C2)c(F)cc2c(=O)c(C(=O)O)cn(C3CC3)c12.Cl
MIC (Escherichia coli [1]; [20]): 0.39 µg/mL
MIC (Citrobacter freundii [2]; [21]): 12.5 µg/mL
MIC (Burkholderia cepacia; [22]): 1.56 µg/mL
MIC (Staphylococcus aureus [19]): ≤ 0.006 µg/mL
MIC (Proteus vulgaris [3]; [23]): 50 µg/mL
MIC (Citrobacter freundii [4]; [21]): 0.39 µg/mL
MIC (Escherichia coli [5]; [20]): 0.025 µg/mL
MIC (Enterococcus faecalis; [24]): 0.05 µg/mL
MIC (Proteus vulgaris [6]; [23]): 0.1 µg/mL
MIC (Klebsiella pneumoniae [7]; [25]): 0.1 µg/mL
MIC (Streptococcus pyogenes; [26]): ≤ 0.006 µg/mL
MIC (Staphylococcus aureus [8]; [27]): ≤ 0.006 µg/mL
MIC [9, 28]: 0.2 µg/mL
MIC (Staphylococcus aureus [10]; [27]): 0.013 µg/mL
MIC (Escherichia coli [11]; [20]): 0.39 µg/mL
MIC (Staphylococcus aureus [12]; [27]): 0.2 µg/mL
MIC (Serratia marcescens; [29]): 0.39 µg/mL
MIC (Pseudomonas aeruginosa [13]; [30]): 6.25 µg/mL
MIC (Klebsiella pneumoniae [14]; [25]): 0.1 µg/mL
MIC (Klebsiella oxytoca; [31]): 0.1 µg/mL
MIC (Pseudomonas aeruginosa [15]; [30]): 0.78 µg/mL
MIC (Enterobacter cloacae; [32]): 0.39 µg/mL
MIC (Proteus mirabilis; [33]): 0.05 µg/mL
MIC (Pseudomonas aeruginosa [16]; [30]): 100 µg/mL
MIC (Pseudomonas aeruginosa [17]; [30]): 0.78 µg/mL
MIC (Escherichia coli [18]; [20]): 0.05 µg/mL

Structure (SMILES): COc1c(N2C[C@@H](N)[C@H](C(F)(F)F)C2)c(F)cc2c(=O)c(C(=O)O)cn(C3CC3)c12.O=C(O)C(F)(F)F
MIC (Escherichia coli [1]; [20]): 3.13 µg/mL
MIC (Citrobacter freundii [2]; [21]): 100 µg/mL
MIC (Burkholderia cepacia; [22]): 1.56 µg/mL
MIC (Staphylococcus aureus [19]): 0.05 µg/mL
MIC (Proteus vulgaris [3]; [23]): 100 µg/mL
MIC (Citrobacter freundii [4]; [21]): 3.13 µg/mL
MIC (Escherichia coli [5]; [20]): 0.05 µg/mL
MIC (Enterococcus faecalis; [24]): 0.39 µg/mL
MIC (Proteus vulgaris [6]; [23]): 0.39 µg/mL
MIC (Klebsiella pneumoniae [7]; [25]): 0.39 µg/mL
MIC (Streptococcus pyogenes; [26]): 0.39 µg/mL
MIC (Staphylococcus aureus [8]; [27]): 0.05 µg/mL
MIC [9, 28]: 0.2 µg/mL
MIC (Staphylococcus aureus [10]; [27]): 0.1 µg/mL
MIC (Escherichia coli [11]; [20]): 3.13 µg/mL
MIC (Staphylococcus aureus [12]; [27]): 3.13 µg/mL
MIC (Serratia marcescens; [29]): 3.13 µg/mL
MIC (Pseudomonas aeruginosa [13]; [30]): 25 µg/mL
MIC (Klebsiella pneumoniae [14]; [25]): 0.39 µg/mL
MIC (Klebsiella oxytoca; [31]): 0.39 µg/mL
MIC (Pseudomonas aeruginosa [15]; [30]): 3.13 µg/mL
MIC (Enterobacter cloacae; [32]): 3.13 µg/mL
MIC (Proteus mirabilis; [33]): 0.2 µg/mL
MIC (Pseudomonas aeruginosa [16]; [30]): > 100 µg/mL
MIC (Pseudomonas aeruginosa [17]; [30]): 6.25 µg/mL
MIC (Escherichia coli [18]; [20]): 0.39 µg/mL

The remaining lines, values ahead:

MIC (Escherichia coli [1]; [20]): 0.2 µg/mL
MIC (Citrobacter freundii [2]; [21]): 6.25 µg/mL
MIC (Burkholderia cepacia; [22]): 1.56 µg/mL
MIC (Staphylococcus aureus [19]): ≤ 0.006 µg/mL
MIC (Proteus vulgaris [3]; [23]): 25 µg/mL
MIC (Citrobacter freundii [4]; [21]): 0.78 µg/mL
MIC (Escherichia coli [5]; [20]): 0.025 µg/mL
MIC (Enterococcus faecalis; [24]): 0.05 µg/mL
MIC (Proteus vulgaris [6]; [23]): 0.05 µg/mL
MIC (Klebsiella pneumoniae [7]; [25]): 0.05 µg/mL
MIC (Streptococcus pyogenes; [26]): ≤ 0.006 µg/mL
MIC (Staphylococcus aureus [8]; [27]): ≤ 0.006 µg/mL
MIC [9, 28]: 0.1 µg/mL
MIC (Staphylococcus aureus [10]; [27]): 0.025 µg/mL
MIC (Escherichia coli [11]; [20]): 0.2 µg/mL
MIC (Staphylococcus aureus [12]; [27]): 0.2 µg/mL
MIC (Serratia marcescens; [29]): 0.78 µg/mL
MIC (Pseudomonas aeruginosa [13]; [30]): 3.13 µg/mL
MIC (Klebsiella pneumoniae [14]; [25]): 0.1 µg/mL
MIC (Klebsiella oxytoca; [31]): 0.05 µg/mL
MIC (Pseudomonas aeruginosa [15]; [30]): 0.78 µg/mL
MIC (Enterobacter cloacae; [32]): 0.39 µg/mL
MIC (Proteus mirabilis; [33]): 0.025 µg/mL
MIC (Pseudomonas aeruginosa [16]; [30]): 50 µg/mL
MIC (Pseudomonas aeruginosa [17]; [30]): 0.78 µg/mL
MIC (Escherichia coli [18]; [20]): 0.05 µg/mL
Structure (SMILES): COc1c(N2C[C@H](CN)[C@H](C(F)(F)F)C2)c(F)cc2c(=O)c(C(=O)O)cn(C3CC3)c12.Cl

MIC (Escherichia coli [1]; [20]): 3.13 µg/mL
MIC (Citrobacter freundii [2]; [21]): 100 µg/mL
MIC (Burkholderia cepacia; [22]): 1.56 µg/mL
MIC (Staphylococcus aureus [19]): ≤ 0.006 µg/mL
MIC (Proteus vulgaris [3]; [23]): 100 µg/mL
MIC (Citrobacter freundii [4]; [21]): 3.13 µg/mL
MIC (Escherichia coli [5]; [20]): ≤ 0.006 µg/mL
MIC (Enterococcus faecalis; [24]): 0.2 µg/mL
MIC (Proteus vulgaris [6]; [23]): 0.39 µg/mL
MIC (Klebsiella pneumoniae [7]; [25]): 0.2 µg/mL
MIC (Streptococcus pyogenes; [26]): 0.1 µg/mL
MIC (Staphylococcus aureus [8]; [27]): 0.025 µg/mL
MIC [9, 28]: 0.2 µg/mL
MIC (Staphylococcus aureus [10]; [27]): 0.05 µg/mL
MIC (Escherichia coli [11]; [20]): 3.13 µg/mL
MIC (Staphylococcus aureus [12]; [27]): 1.56 µg/mL
MIC (Serratia marcescens; [29]): 3.13 µg/mL
MIC (Pseudomonas aeruginosa [13]; [30]): 25 µg/mL
MIC (Klebsiella pneumoniae [14]; [25]): 0.39 µg/mL
MIC (Klebsiella oxytoca; [31]): 0.39 µg/mL
MIC (Pseudomonas aeruginosa [15]; [30]): 6.25 µg/mL
MIC (Enterobacter cloacae; [32]): 1.56 µg/mL
MIC (Proteus mirabilis; [33]): 0.2 µg/mL
MIC (Pseudomonas aeruginosa [16]; [30]): > 100 µg/mL
MIC (Pseudomonas aeruginosa [17]; [30]): 6.25 µg/mL
MIC (Escherichia coli [18]; [20]): 0.39 µg/mL
Structure (SMILES): COc1c(N2CC[C@@](N)(C(F)(F)F)C2)c(F)cc2c(=O)c(C(=O)O)cn(C3CC3)c12.Cl

MIC (Escherichia coli [1]; [20]): > 12.5 µg/mL
MIC (Citrobacter freundii [2]; [21]): > 12.5 µg/mL
MIC (Burkholderia cepacia; [22]): 3.13 µg/mL
MIC (Staphylococcus aureus [19]): 0.05 µg/mL
MIC (Proteus vulgaris [3]; [23]): > 12.5 µg/mL
MIC (Citrobacter freundii [4]; [21]): > 12.5 µg/mL
MIC (Escherichia coli [5]; [20]): 0.05 µg/mL
MIC (Enterococcus faecalis; [24]): 0.78 µg/mL
MIC (Proteus vulgaris [6]; [23]): 3.13 µg/mL
MIC (Klebsiella pneumoniae [7]; [25]): 1.56 µg/mL
MIC (Streptococcus pyogenes; [26]): 0.78 µg/mL
MIC (Staphylococcus aureus [8]; [27]): 0.1 µg/mL
MIC [9, 28]: 1.56 µg/mL
MIC (Staphylococcus aureus [10]; [27]): 0.2 µg/mL
MIC (Escherichia coli [11]; [20]): > 12.5 µg/mL
MIC (Staphylococcus aureus [12]; [27]): 6.25 µg/mL
MIC (Serratia marcescens; [29]): > 12.5 µg/mL
MIC (Pseudomonas aeruginosa [13]; [30]): > 12.5 µg/mL
MIC (Klebsiella pneumoniae [14]; [25]): 6.25 µg/mL
MIC (Klebsiella oxytoca; [31]): 6.25 µg/mL
MIC (Pseudomonas aeruginosa [15]; [30]): > 12.5 µg/mL
MIC (Enterobacter cloacae; [32]): 12.5 µg/mL
MIC (Proteus mirabilis; [33]): 0.78 µg/mL
MIC (Pseudomonas aeruginosa [16]; [30]): > 12.5 µg/mL
MIC (Pseudomonas aeruginosa [17]; [30]): > 12.5 µg/mL
MIC (Escherichia coli [18]; [20]): 3.13 µg/mL
Structure (SMILES): COc1c(N2CC[C@@](CN)(C(F)(F)F)C2)c(F)cc2c(=O)c(C(=O)O)cn(C3CC3)c12.Cl
